Assay results taken from DBAASP.
Converted amounts (≈) assume the structure as drawn. “And” between values parts separate entries of the source, which are not always exact repeats. Identical values can stand only once. Values belong to the molecule of their own block, whether it stands above or below them.

Legend:
Test in all cases: ≥ marks a high value that may be exact or a test limit, other limits are often not marked, values filed in µg/mL are converted to µM
[1] = system: Bacillus subtilis ATCC 6633
[2] = system: Candida albicans ATCC 20032
[3] = system: Escherichia coli ATCC 25922
[4] = system: Staphylococcus aureus ATCC 25923
[5] = system: Candida albicans ATCC 90028
[6] = system: Enterobacter cloacae NHTCC 53001
[7] = system: Enterococcus faecalis ATCC 29212
[8] = system: Klebsiella pneumoniae KK3 9904
[9] = system: Proteus mirabilis ATCC 25933
[10] = system: Pseudomonas aeruginosa ATCC 27853
[11] = system: Staphylococcus aureus NCTC 8325
[12] = system: Staphylococcus epidermidis RP62A
[13] = system: Pseudomonas aeruginosa PAK
[14] = system: Staphylococcus aureus
[15] = system: Streptococcus gordonii Challis DL1
[16] = system: Streptococcus mitis ATCC 903
[17] = system: Streptococcus mutans UA159
[18] = system: Streptococcus sanguinis NY101
[19] = system: Klebsiella pneumoniae ATCC 10031
[20] = system: Micrococcus luteus ATCC 10240
[21] = system: Salmonella enterica subsp. enterica serovar Typhimurium ATCC 14028
[22] = system: Shigella dysenteriae ATCC 9752
[23] = system: Staphylococcus aureus ATCC 6538P
[24] = system: Staphylococcus epidermidis ATCC 12228
[25] = system: Bacillus subtilis CMCC 63501
[26] = system: Escherichia coli UB1005
[27] = system: Salmonella typhimurium ATCC 7731
[28] = system: Staphylococcus aureus ATCC 29213

- MIC [1]: ≥ 46.2 µM
- MIC [2]: ≥ 46.2 µM
- MIC [3]: 46.2 µM (≈ 100 µg/mL)
- MIC [4]: 5.8 µM (≈ 12.6 µg/mL)
SMILES: CC[C@H](C)[C@@H]1NC(=O)[C@H](CO)NC(=O)[C@H](CCCCN)NC(=O)[C@H]([C@@H](C)O)NC(=O)[C@H](Cc2c[nH]c3ccccc23)NC(=O)[C@@H](NC(=O)CNC(=O)[C@H](CCCN=C(N)N)NC(=O)[C@H](CC(C)C)NC(=O)[C@H](C)NC(=O)[C@H](C)N)CSSC[C@@H](C(=O)N2CCC[C@H]2C(=O)NCC(=O)N[C@@H](CCCCN)C(=O)N[C@@H](CCCN=C(N)N)C(=O)O)NC(=O)[C@@H]2CCCN2C(=O)[C@H](CCCCN)NC(=O)[C@@H]2CCCN2C(=O)[C@@H]2CCCN2C1=O [AALRGCWTKSIPPKPCPGKR]

- MIC [5]: ≥ 40 µM
- MIC [6]: 5 µM (≈ 16.3 µg/mL)
- MIC [7]: > 40 µM
- MIC [3]: 5 µM (≈ 16.3 µg/mL)
- MIC [8]: 10 µM (≈ 32.6 µg/mL)
- MIC [9]: ≥ 40 µM
- MIC [10]: 5 µM (≈ 16.3 µg/mL)
- MIC [11]: 20 µM (≈ 65.2 µg/mL)
- MIC [12]: 20 µM (≈ 65.2 µg/mL)
SMILES: CC[C@H](C)[C@H](NC(=O)CN)C(=O)N[C@@H](CC(C)C)C(=O)N[C@@H](CO)C(=O)N[C@@H](CO)C(=O)N[C@@H](Cc1ccccc1)C(=O)N[C@@H](CCCCN)C(=O)NCC(=O)N[C@H](C(=O)N[C@@H](C)C(=O)N[C@@H](CCCCN)C(=O)NCC(=O)N[C@H](C(=O)N[C@@H](C)C(=O)N[C@@H](CCCCN)C(=O)N[C@@H](CC(N)=O)C(=O)N[C@@H](CC(C)C)C(=O)N[C@@H](C)C(=O)NCC(=O)N[C@@H](CCCCN)C(=O)N[C@@H](CC(C)C)C(=O)N[C@@H](CC(C)C)C(=O)N[C@@H](CC(=O)O)C(=O)N[C@@H](CCC(=O)O)C(=O)N[C@@H](CC(C)C)C(=O)N[C@@H](CCCCN)C(=O)N[C@H]1CSSC[C@@H](C(=O)O)NC(=O)CNC(=O)[C@H]([C@@H](C)O)NC(=O)[C@H]([C@@H](C)CC)NC(=O)[C@H](CCCCN)NC1=O)C(C)C)C(C)C [GILSSFKGVAKGVAKNLAGKLLDELKCKITGC]

- MIC [1]: ≥ 37.8 µM
- MIC [2]: ≥ 37.8 µM
- MIC [3]: > 37.8 µM
- MIC [4]: 7.11 µM (≈ 18.8 µg/mL)
SMILES: CC[C@H](C)[C@H](NC(=O)CN)C(=O)NCC(=O)NCC(=O)N[C@H](C(=O)N[C@@H](CC(C)C)C(=O)N[C@@H](CC(C)C)C(=O)N[C@@H](CO)C(=O)N[C@@H](C)C(=O)NCC(=O)N[C@@H](CCCCN)C(=O)N[C@@H](C)C(=O)N[C@@H](C)C(=O)N[C@@H](CC(C)C)C(=O)N[C@@H](CCCCN)C(=O)NCC(=O)N[C@@H](CC(C)C)C(=O)N[C@H](C(=O)N[C@@H](CCCCN)C(=O)N[C@H](C(=O)N[C@@H](CC(C)C)C(=O)N[C@@H](C)C(=O)N[C@@H](CCC(=O)O)C(=O)N[C@@H](CCCCN)C(=O)N[C@@H](Cc1ccc(O)cc1)C(=O)N[C@@H](C)C(=O)N[C@@H](CC(N)=O)C(N)=O)C(C)C)[C@@H](C)O)C(C)C [GIGGVLLSAGKAALKGLTKVLAEKYAN]

- MIC [13]: 24.1 µM (≈ 62.5 µg/mL)
- MIC [14]: 12.4 µM (≈ 32 µg/mL)
- MIC [15]: 12.4 µM (≈ 32 µg/mL)
- MIC [16]: 12.4 µM (≈ 32 µg/mL)
- MIC [17]: 3.09 µM (≈ 8 µg/mL)
- MIC [18]: 12.4 µM (≈ 32 µg/mL)
SMILES: CC[C@H](C)[C@H](NC(=O)[C@H](Cc1ccccc1)NC(=O)[C@H](Cc1cnc[nH]1)NC(=O)[C@H](CCCCN)NC(=O)[C@@H](NC(=O)[C@@H](N)Cc1ccccc1)[C@@H](C)CC)C(=O)N[C@@H](Cc1cnc[nH]1)C(=O)N[C@@H](CCCN=C(N)N)C(=O)N[C@@H](Cc1ccccc1)C(=O)NCC(=O)NCC(=O)NCC(=O)N[C@@H](CCCN=C(N)N)C(=O)N[C@@H](Cc1c[nH]c2ccccc12)C(=O)N[C@@H](CCCN=C(N)N)C(=O)N[C@@H](Cc1c[nH]c2ccccc12)C(=O)N[C@@H](CCCN=C(N)N)C(=O)N[C@@H](Cc1c[nH]c2ccccc12)C(=O)N[C@@H](Cc1ccccc1)C(N)=O [FIKHFIHRFGGGRWRWRWF]

- MIC [1]: ≥ 108 µM
- MIC [3]: > 215 µM
- MIC [19]: ≥ 215 µM
- MIC [20]: 26.9 µM (≈ 25 µg/mL)
- MIC [10]: > 215 µM
- MIC [21]: > 215 µM
- MIC [22]: ≥ 108 µM
- MIC [23]: ≥ 215 µM
- MIC [24]: > 215 µM
SMILES: CC(C)C[C@H](NC(=O)[C@H](Cc1c[nH]c2ccccc12)NC(=O)[C@H](CCCCN)NC(=O)[C@H](CC(C)C)NC(=O)[C@@H](N)CC(C)C)C(=O)N[C@@H](CCCCN)C(=O)N[C@@H](CCCCN)C(N)=O [LLKWLKK]

- MIC [5]: ≥ 100 µM
- MIC [6]: 6 µM (≈ 14.2 µg/mL)
- MIC [7]: > 100 µM
- MIC [3]: 3 µM (≈ 7.11 µg/mL)
- MIC [8]: 6 µM (≈ 14.2 µg/mL)
- MIC [9]: ≥ 100 µM
- MIC [10]: 25 µM (≈ 59.2 µg/mL)
- MIC [11]: ≥ 100 µM
- MIC [14]: 32 µM (≈ 75.8 µg/mL)
- MIC [12]: ≥ 50 µM
SMILES: CC[C@H](C)[C@H](NC(=O)[C@H](Cc1cnc[nH]1)NC(=O)CNC(=O)[C@H](C)NC(=O)[C@@H](NC(=O)[C@@H](NC(=O)[C@H](CCCCN)NC(=O)[C@@H](NC(=O)[C@H](Cc1ccccc1)NC(=O)[C@H](C)NC(=O)[C@H](CCCCN)NC(=O)[C@H](C)NC(=O)[C@H](C)NC(=O)CNC(=O)[C@H](CCCCN)NC(=O)[C@H](CC(C)C)NC(=O)[C@@H](NC(=O)[C@H](CC(=O)O)NC(=O)[C@H](CCCN=C(N)N)NC(=O)[C@H](Cc1ccccc1)NC(=O)CN)C(C)C)C(C)C)[C@@H](C)O)C(C)C)C(=O)N[C@@H](C)C(=O)N[C@@H](CC(N)=O)C(N)=O [GFRDVLKGAAKAFVKTVAGHIAN]

- MIC [25]: 4 µM (≈ 11 µg/mL)
- MIC [26]: 4 µM (≈ 11 µg/mL)
- MIC [10]: 4 µM and > 2 µM
- MIC [21]: 4 µM (≈ 11 µg/mL)
- MIC [27]: 2 µM (≈ 5.48 µg/mL)
- MIC [28]: 4 µM (≈ 11 µg/mL)
- MIC [24]: 4 µM (≈ 11 µg/mL)
SMILES: CC[C@H](C)[C@H](NC(=O)[C@H](C)NC(=O)[C@H](CCCCN)NC(=O)[C@H](Cc1ccc(O)cc1)NC(=O)[C@H](CC(C)C)NC(=O)[C@H](C)NC(=O)[C@@H](NC(=O)[C@@H](NC(=O)[C@H](CC(N)=O)NC(=O)[C@@H](NC(=O)[C@H](C)NC(=O)[C@@H](NC(=O)[C@@H]1CCCN1C(=O)[C@@H](NC(=O)[C@H](CC(C)C)NC(=O)[C@@H]1CCCN1C(=O)[C@H](Cc1c[nH]c2ccccc12)NC(=O)[C@H](Cc1ccccc1)NC(=O)[C@H](CCCN=C(N)N)NC(=O)[C@@H](N)CCCCN)C(C)C)C(C)C)[C@@H](C)CC)[C@@H](C)O)C(C)C)C(=O)N[C@@H](CCCN=C(N)N)C(=O)N[C@@H](CCCN=C(N)N)C(=O)N[C@@H](CCCCN)C(N)=O [KRFWPLVPVAINTVALYKAIRRK]

- MIC [13]: 10.1 µM (≈ 32 µg/mL)
- MIC [14]: 10.1 µM (≈ 32 µg/mL)
- MIC [15]: 2.54 µM (≈ 8 µg/mL)
- MIC [16]: 19.8 µM (≈ 62.5 µg/mL)
- MIC [17]: 5.07 µM (≈ 16 µg/mL)
- MIC [18]: 10.1 µM (≈ 32 µg/mL)
SMILES: CC[C@H](C)[C@H](NC(=O)[C@H](Cc1ccccc1)NC(=O)[C@H](Cc1cnc[nH]1)NC(=O)[C@H](CCCCN)NC(=O)[C@@H](NC(=O)[C@@H](N)Cc1ccccc1)[C@@H](C)CC)C(=O)N[C@@H](Cc1cnc[nH]1)C(=O)N[C@@H](CCCN=C(N)N)C(=O)N[C@@H](Cc1ccccc1)C(=O)N[C@@H](CO)C(=O)NCC(=O)NCC(=O)N[C@@H](CC(C)C)C(=O)N[C@@H](CCC(N)=O)C(=O)N[C@@H](CC(C)C)C(=O)N[C@@H](CC(C)C)C(=O)N[C@@H](CCCCN)C(=O)N[C@@H](CCC(N)=O)C(=O)N[C@@H](CC(C)C)C(=O)N[C@@H](CC(C)C)C(=O)N[C@@H](CCCCN)C(=O)N[C@@H](CC(C)C)C(=O)N[C@@H](CC(C)C)C(=O)N[C@@H](CCCCN)C(=O)N[C@@H](CCC(N)=O)C(=O)N[C@@H](Cc1ccccc1)C(N)=O [FIKHFIHRFSGGLQLLKQLLKLLKQF]
